{"source": "paper PMC3341351", "about": "“Down-Regulation of GABAA Receptor via Promiscuity with the Vasoactive Peptide Urotensin II Receptor. Potential Involvement in Astrocyte Plasticity” (PLoS ONE, 2012)", "key": {"[1]": {"test_system": "γ2^HA GABAAR subunit", "assay": "Cell surface ELISA of γ2^HA GABAAR subunit in CHO-UT^c-myc-α2β3γ2^HA", "format": "cell-based", "conditions": "hUII 10^−8 M, 30 min, 37°C, 5 to 7 independent experiments in triplicates", "procedure": "Cells were plated at 50 000 cells/well in 96-well plates coated with 0.1 mg/ml poly-L-ornithine (Sigma-Aldrich). […] Cells were fixed with 4% PFA in PBS for 5 min at RT, washed in PBS, and then permeabilized in 0.05% triton X100 (only for permeabilized cells) and non specific binding were blocked with PBS containing 1% FBS for 30 min at RT. The first rat anti-HA monoclonal antibody (0.5 µg/ml, 3F10 clone, Roche, Meylan, France or 1 µg/ml, Santa-Cruz), mouse anti-c-myc monoclonal antibody (1.33 µg/ml, 9E10 clone, Roche), rabbit anti-UT antibody (1 µg/ml, Tebu, Santa-Cruz) or rabbit anti-β3 antibody (1∶200, Abcam, Paris, France), were added for 1 h30 at RT. Incubation with goat anti-rat (Thermo scientific, Fisher, Brebières, France), goat anti-mouse (Santa Cruz) or goat anti-rabbit (Tebu, Santa Cruz) conjugated alkaline phosphatase diluted at 1∶1000 in PBS/FBS was carried out for 30 min at RT. The cells were washed four times with PBS, a colorimetric alkaline phosphatase substrate was added (SuperSignal ELISA, Thermo scientific, Fisher) and the resulting color reaction was measured using a Viktor multilabel plate reader (PerkinElmer, Courtaboeuf, France). Background absorbance from samples transfected with non-tagged receptors or from cells without first antibodies were systematically measured. […] All experiments were done at least three times in triplicates."}, "[2]": {"test_system": "GABAAR co-expressed with UT^HA 370", "assay": "Patch-clamp of Iso-evoked current in CHO co-expressing GABAAR and truncated UT^HA 370", "format": "cell-based", "conditions": "hUII 10^−8 M, 1 min, Iso 10^−4 M, 2 s", "excerpt": "For UT epitope-tagged with HA (UT^HA), or c-myc (UT^c-myc), human UT receptor cDNA inserted into pcDNA3.1 (Ressource Center, MI, USA) was amplified and PCR products were subcloned using the EcoRI and XhoI sites of pCMV-HA or pCMV-c-myc. Mutant UT receptor cDNAs were constructed by oligonucleotide-directed mutagenesis (Expand High Fidelity PCR System; Roche) using the human UT receptor cDNA inserted into pcDNA3.1 as a template. Two sets of forward and reverse oligonucleotides were used (Table S2) to introduce stop codons in frame of Leu370, Phe351, Gly332 and Thr319 (to generate UT371, UT351, UT332 and UT319, respectively). PCR products were subcloned using the EcoRI and XhoI sites of pCMV-HA after digestion by the same restriction enzymes. Mutagenesis was confirmed by automated nucleotide sequencing.\nThe conventional whole-cell configuration of the patch-clamp technique was used to study the GABA-gated currents in astrocytes and granule neurons, UT stably transfected CHO, CHO-UT, and CHO transiently transfected with diverse variants of UT and GABAAR subunits. After 24-h transfection, cell culture coverslips were placed in a small chamber (1.5 ml) on a stage of a right microscope DMLFSA (Leica, Heidelberg, Germany) and superfused continuously with the following bath solution containing (in mM): NaCl, 150; KCl, 2.5; HEPES, 5; CaCl2, 2; MgCl2, 1; glucose, 10 (pH 7.4 adjusted with NaOH). […]"}}, "data": [{"sequence": "ETPDCFWKYCV (disulfide) [hUII, human urotensin II, synthesized by solid phase methodology]", "values": [{"measurement": "Loss of γ2^HA subunit from the cell surface", "setting": "[1]", "value": "approximately 40%"}, {"measurement": "hUII-induced fast short-term inhibition with UT^HA 370", "setting": "[2]", "value": "totally abolished"}, {"measurement": "hUII-induced long-term inhibition with UT^HA 370", "setting": "[2]; washout", "value": "delayed, and significantly altered"}]}]}
